Structures can show the parent of a compound that is named as a salt. Where two headings read alike, the source gives them in different places.
Assays:
[1] = test system: RSV (Group A, Long Strain); test: Cytopathetic effect (CPE) protection antiviral assay, MTT readout; assay type: cell-based; conditions: human respiratory syncytial virus, HEp-2, 96 h, read-out: RSV EC50
Description: HEp-2 cells and RSV (Group A, Long Strain) were obtained from the American Type Culture Collection (Manassas, Va.).
A cytopathetic effect (CPE) protection assay was performed to determine the ability of a compound to protect the cells from viral infection and thus the CPE induced by viral infection. 96-Well plates were first seeded with […] per well in Dulbecco's modified Eagle's medium (DMEM) containing 10% fetal bovine serum (FBS). One day after the cells were seeded, they were preincubated with serial dilutions of compounds prepared in 100 μL assay medium (DMEM mixed with F12 medium at a 1:1 ratio, supplemented with 2% FBS and 1 mM sodium pyruvate) for 1 hour at 37° C. 100 μL of assay medium containing 0.2 multiplicity of infection (MOI) of RSV was then added to each well of cells. In addition to wells containing infected cells incubated with compounds, each plate also contained replicates of two kinds of controls: (1) Virus control contained cells infected with 0.2 MOI of RSV in assay medium, (2) Uninfected cell control contained cells incubated with assay medium only. After 4 days of incubation at 37° C., the viability of cells was assessed using MTT (Thiazolyl blue tetrazolium bromide, Sigma). A stock solution of MTT, at a concentration of 4 mg/mL in phosphate-buffered saline, was added to all wells at 25 μL per well. Plates were further incubated for 4 hours, and each well was then treated with 50 μL of a solution containing 20% sodium dodecyl sulfate (SDS) and 0.02 N HCl. After an overnight incubation, the plates were measured on a BioTek® microtiter plate reader at wavelengths of 570 nm and 650 nm. The MTT detection is based on the fact that viable (uninfected) cells can reduce the tetrazolium salts into colored formazan products, which can then be quantitated by spectrometry. Based on the spectrometric absorbance of each sample, the percent of protection from CPE, which is an indicator of protection from viral infection, can be calculated for each compound and the 50% effective concentrations (EC50) can be calculated using a nonlinear regression curve fitting equation provided by the GraphPad Prism® 4 software.
Compounds were tested to determine both their antiviral and toxicity to determine their therapeutic window. Determination of the EC50 and TD50 of these active compounds were repeated one additional time to confirm the window.

HEp-2 cells = test: Cytotoxicity assay (MTT) run in parallel with the antiviral assay; assay type: cell-based; conditions: uninfected HEp-2 cells, 4 days incubation, 50% toxicity dose
Description: HEp-2 cells and RSV (Group A, Long Strain) were obtained from the American Type Culture Collection (Manassas, Va.). Cytotoxicity of the compounds was determined in experiments done in parallel with the antiviral assays. To do this, 100 μL of assay medium was added to the wells of HEp-2 cells pretreated with 100 μL serially diluted compounds as described above. After 4 days of incubation, the viability of the cells was determined by the MT assay in the same way as detailed in the “Antiviral Assay” method. Results were expressed as 50% toxicity dose (TD50) values. Compounds were tested to determine both their antiviral and toxicity to determine their therapeutic window. Determination of the EC50 and TD50 of these active compounds were repeated one additional time to confirm the window.

[2] = HEp-2 cells, 0.2 MOI RSV, 4 days incubation, protection from CPE (Table 1)
[3] = HEp-2 cells, 0.2 MOI RSV, 4 days, Table 2, determination repeated to confirm window

CC(C)C1CN(c2cnc3ccccc3n2)CCN1/C(=N\C#N)Nc1ccccc1Cl (centres unmarked) [Example 1.19, N-(2-chlorophenyl)-N′-cyano-2-isopropyl-4-(quinoxalin-2-yl)piperazine-1-carboximidamide]
EC50 [1, 2]: 150 nM
EC50 [1, 3]: 150 nM
MTT TD50 (HEp-2 cells): >27.49 µM

Cc1ccccc1N/C(=N/C#N)N1CCN(c2nc3ccccc3s2)CC1C(C)C (centres unmarked) [Example 1.6, 4-(1,3-benzothiazol-2-yl)-N′-cyano-2-isopropyl-N-(2-methylphenyl)piperazine-1-carboximidamide]
EC50 [1, 2]: 1590 nM
EC50 [1, 3]: 1870 nM
MTT TD50 (HEp-2 cells): >10 µM

Cc1ccccc1N/C(=N/C#N)N1CCN(c2cnc3ccccc3n2)C[C@@H]1C(C)C [Example 1.13, (2S)—N′-cyano-2-isopropyl-N-(2-methylphenyl)-4-(quinoxalin-2-yl)piperazine-1-carboximidamide trifluoroacetate]
EC50 [1]: 200 nM
MTT TD50 (HEp-2 cells): >38.6 µM

Cc1ccc2oc(N3CCN(/C(=N\C#N)Nc4ccccc4C)C(C(C)C)C3)nc2c1 (centres unmarked) [Example 1.7, N′-cyano-2-isopropyl-4-(5-methyl-1,3-benzoxazol-2-yl)-N-(2-methylphenyl)piperazine-1-carboximidamide]
EC50 [1, 2]: 830 nM
EC50 [1, 3]: 830 nM
MTT TD50 (HEp-2 cells): >10 µM

Cc1ccccc1N/C(=N/C#N)N1CCN(c2cnc3cc(F)ccc3n2)CC1C(C)C (centres unmarked) [Example 1.54, N′-cyano-4-(6-fluoroquinoxalin-2-yl)-2-isopropyl-N-(2-methylphenyl)piperazine-1-carboximidamide]
EC50 [1, 2]: 260 nM
EC50 [1, 3]: 260 nM
MTT TD50 (HEp-2 cells): >29.31 µM

Cc1ccccc1N/C(=N/C#N)N1CCN(c2cnc3ccccc3n2)CC1C(C)C (centres unmarked) [Example 1.3, N′-cyano-2-isopropyl-N-(2-methylphenyl)-4-(quinoxalin-2-yl)piperazine-1-carboximidamide trifluoroacetate]
EC50 [1]: 250 nM
MTT TD50 (HEp-2 cells): >32 µM

Cc1ccccc1N/C(=N/C#N)N1CCN(c2ncnc3ccccc23)CC1C(C)C (centres unmarked) [Example 1.8, N′-cyano-2-isopropyl-N-(2-methylphenyl)-4-(quinazolin-4-yl)piperazine-1-carboximidamide]
EC50 [1, 2]: 450 nM
EC50 [1, 3]: 300 nM
MTT TD50 (HEp-2 cells): >100 µM

Cc1ccccc1N/C(=N/C#N)N1CCN(c2nc3ccccc3o2)CC1C(C)C (centres unmarked) [Example 1.4, 4-(1,3-benzoxazol-2-yl)-N′-cyano-2-isopropyl-N-(2-methylphenyl)piperazine-1-carboximidamide]
EC50 [1, 2]: 1140 nM
EC50 [1, 3]: 1140 nM
MTT TD50 (HEp-2 cells): 28.85 µM

CCC1CN(c2cnc3ccccc3n2)CCN1/C(=N\C#N)Nc1ccccc1C (centres unmarked) [Example 1.44, N′-cyano-2-ethyl-N-(2-methylphenyl)-4-(quinoxalin-2-yl)piperazine-1-carboximidamide]
EC50 [1, 2]: 120 nM
EC50 [1, 3]: 120 nM
MTT TD50 (HEp-2 cells): 42.06 µM

Cc1ccccc1N/C(=N/C#N)N1CCN(c2nc3ccccc3[nH]2)CC1C(C)C (centres unmarked) [Example 1.9, 4-(1H-benzimidazol-2-yl)-N′-cyano-2-isopropyl-N-(2-methylphenyl)piperazine-1-carboximidamide]
EC50 [1, 2]: 4090 nM
EC50 [1, 3]: 4090 nM
MTT TD50 (HEp-2 cells): >100 µM

Cc1ccccc1N/C(=N/C#N)N1CCN(c2ncnc3[nH]ccc23)CC1C(C)C (centres unmarked) [Example 1.11, N′-cyano-2-isopropyl-N-(2-methylphenyl)-4-(7H-pyrrolo[2,3-d]pyrimidin-4-yl)piperazine-1-carboximidamide]
EC50 [1, 2]: 1410 nM
EC50 [1, 3]: 1910 nM
MTT TD50 (HEp-2 cells): >100 µM

Cc1ccccc1N/C(=N/C#N)N1CCN(c2nc3ccccc3nc2C)CC1C(C)C (centres unmarked) [Example 1.52, N′-cyano-2-isopropyl-N-(2-methylphenyl)-4-(3-methylquinoxalin-2-yl)piperazine-1-carboximidamide]
EC50 [1, 2]: > 10000 nM

CCC(C)C1CN(c2cnc3ccccc3n2)CCN1/C(=N\C#N)Nc1ccccc1C (centres unmarked) [Example 1.47, 2-sec-butyl-N′-cyano-N-(2-methylphenyl)-4-(quinoxalin-2-yl)piperazine-1-carboximidamide]
EC50 [1, 2]: > 1380 nM

COC(=O)c1cnc(N2CCN(/C(=N\C#N)Nc3ccccc3Cl)C(C(C)C)C2)cn1 (centres unmarked) [Example 1.2, methyl 5-{4-[N-(2-chlorophenyl)-N′-cyanocarbamimidoyl]-3-isopropylpiperazin-1-yl}pyrazine-2-carboxylate]
EC50 [1, 2]: 1130 nM
EC50 [1, 3]: 1130 nM
MTT TD50 (HEp-2 cells): >100 µM

CC(C)C1CN(c2cnc3ccccc3n2)CCN1/C(=N\C#N)Nc1cccc(F)c1 (centres unmarked) [Example 1.20, N′-cyano-N-(3-fluorophenyl)-2-isopropyl-4-(quinoxalin-2-yl)piperazine-1-carboximidamide]
EC50 [1, 2]: > 10000 nM

Cc1ccccc1N/C(=N/C#N)N1CCN(c2cnc3ccccc3n2)CC1C(C)(C)C (centres unmarked) [Example 1.46, 2-tert-butyl-N′-cyano-N-(2-methylphenyl)-4-(quinoxalin-2-yl)piperazine-1-carboximidamide]
EC50 [1, 2]: > 10000 nM

Cc1ccccc1NC(=NC#N)NC(CNc1cnc2ccccc2n1)C(C)C (centres unmarked) [Example 2.1, 2-cyano-1-(2-methylphenyl)-3-[3-methyl-1-(quinoxalin-2-ylamino)butan-2-yl]guanidine]
EC50 [1, 2]: > 10000 nM

Cc1ccccc1N/C(=N/C#N)N1CCN(c2cnc3ccccc3n2)CC1CC1CCCCC1 (centres unmarked) [Example 1.49, N′-cyano-2-(cyclohexylmethyl)-N-(2-methylphenyl)-4-(quinoxalin-2-yl)piperazine-1-carboximidamide]
EC50 [1, 2]: > 3200 nM

Cc1ccccc1N(C)C(=NC#N)N1CCN(c2cnc3ccccc3n2)CC1C(C)C (centres unmarked) [Example 1.75, N′-cyano-2-isopropyl-N-methyl-N-(2-methylphenyl)-4-(quinoxalin-2-yl)piperazine-1-carboximidamide]
EC50 [1, 2]: 3400 nM

Cc1cccc(N/C(=N/C#N)N2CCN(c3cnc4ccccc4n3)CC2C(C)C)c1 (centres unmarked) [Example 1.22, N′-cyano-2-isopropyl-N-(3-methylphenyl)-4-(quinoxalin-2-yl)piperazine-1-carboximidamide]
EC50 [1, 2]: 400 nM

Cc1ccccc1N/C(=N/C#N)N1CCN(c2nc3ccccc3c(=O)[nH]2)CC1C(C)C (centres unmarked) [Example 1.10, N′-cyano-2-isopropyl-N-(2-methylphenyl)-4-(4-oxo-3,4-dihydroquinazolin-2-yl)piperazine-1-carboximidamide]
EC50 [1, 2]: 430 nM
EC50 [1, 3]: 430 nM
MTT TD50 (HEp-2 cells): >100 µM

Cc1ccccc1NC(=NC#N)N1CCN(c2cnc3cc(F)ccc3n2)C[C@@H]1C(C)C [Example 1.67, (2S)—N′-cyano-4-(6-fluoroquinoxalin-2-yl)-2-isopropyl-N-(2-methylphenyl)piperazine-1-carboximidamide]
EC50 [1, 2]: 360 nM

Cc1cc(F)ccc1N/C(=N/C#N)N1CCN(c2cnc3ccccc3n2)CC1C(C)C (centres unmarked) [Example 1.32, N′-cyano-N-(4-fluoro-2-methylphenyl)-2-isopropyl-4-(quinoxalin-2-yl)piperazine-1-carboximidamide]
EC50 [1, 2]: > 10000 nM

Cc1ccccc1NC(=NC#N)N1CCN(c2cncc(N3CCOCC3)n2)CC1C(C)C (centres unmarked) [Example 1.63, N′-cyano-2-isopropyl-N-(2-methylphenyl)-4-[6-(morpholin-4-yl)pyrazin-2-yl]piperazine-1-carboximidamide]
EC50 [1, 2]: > 10000 nM

Cc1c(F)cccc1N/C(=N/C#N)N1CCN(c2cnc3ccccc3n2)CC1C(C)C (centres unmarked) [Example 1.29, N′-cyano-N-(3-fluoro-2-methylphenyl)-2-isopropyl-4-(quinoxalin-2-yl)piperazine-1-carboximidamide]
EC50 [1, 2]: > 3160 nM

Cc1ccccc1N/C(=N/C#N)N1CCN(c2ncc3ccccc3n2)CC1C(C)C (centres unmarked) [Example 1.62, N′-cyano-2-isopropyl-N-(2-methylphenyl)-4-(quinazolin-2-yl)piperazine-1-carboximidamide]
EC50 [1, 2]: > 32000 nM

Cc1ccccc1N/C(=N/C#N)N1CCN(c2nccnc2C#N)CC1C(C)C (centres unmarked) [Example 1.1, N′-cyano-4-(3-cyanopyrazin-2-yl)-2-isopropyl-N-(2-methylphenyl)piperazine-1-carboximidamide]
EC50 [1, 2]: 890 nM
EC50 [1, 3]: 890 nM
MTT TD50 (HEp-2 cells): >100 µM

Source: US10112911B2, “Substituted cyanoguanidines as oral anti-virals” (Abbvie Inc, priority 2012, dated 2018)
